The term pKi denotes the negative decadic logarithm of the Ki, by convention in mol/L.

This test addresses Coagulation factor XI (Homo sapiens, UniProt P03951). The experiment in a line: In Vitro Assay: The effectiveness of compounds of the present invention as inhibitors of the coagulation Factors XIa, VIIa, IXa, Xa, XIIa, plasma kallikrein or thrombin, can be determined using a relevant purified serine protease, respectively, and an appropriate synthetic substrate. The rate of hydrolysis of the chromogenic or fluorogenic substrate by the relevant serine protease was measured both in the absence and presence of compounds of the present invention. […] A decrease in the rate of absorbance or fluorescence change in the presence of inhibitor is indicative of enzyme inhibition. Factor XIa determinations were made in 50 mM HEPES buffer at pH 7.4.

pKi: −log10 of the molar value.

Sequence of Coagulation factor XI (P03951 19-387 limits assumed): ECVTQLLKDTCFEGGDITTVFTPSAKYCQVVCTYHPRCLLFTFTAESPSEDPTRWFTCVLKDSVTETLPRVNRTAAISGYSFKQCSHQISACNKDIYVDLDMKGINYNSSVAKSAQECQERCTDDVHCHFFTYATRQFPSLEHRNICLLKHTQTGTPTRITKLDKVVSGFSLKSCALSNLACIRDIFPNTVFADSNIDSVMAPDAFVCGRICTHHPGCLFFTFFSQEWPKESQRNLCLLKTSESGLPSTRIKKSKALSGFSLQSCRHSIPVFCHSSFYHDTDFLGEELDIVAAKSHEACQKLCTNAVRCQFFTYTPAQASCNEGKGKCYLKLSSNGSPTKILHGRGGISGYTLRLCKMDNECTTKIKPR
Sequence of Coagulation factor XI (P03951 388-625 limits assumed): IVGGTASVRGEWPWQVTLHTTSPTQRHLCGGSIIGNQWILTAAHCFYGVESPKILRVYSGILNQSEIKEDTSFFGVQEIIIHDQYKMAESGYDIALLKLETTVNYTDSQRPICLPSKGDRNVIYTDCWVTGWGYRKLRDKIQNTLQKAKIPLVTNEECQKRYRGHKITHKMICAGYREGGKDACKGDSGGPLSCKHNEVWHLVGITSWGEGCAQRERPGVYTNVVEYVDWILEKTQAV

Regarding `COC(=O)Nc1ccc2c(c1)CNC(=O)c1ccc(cc1)C[C@H](NC(=O)/C=C/c1cc(Cl)ccc1-n1cnnn1)c1nc-2c(Cl)[nH]1`, the pKi is 5.09.

The record behind these values is ChEMBL document CHEMBL3638865, “Macrocycles as factor XIa inhibitors” (2014).
